# Data taken from patent US11834663B2, “Fibrotic treatment” (Monash University, priority 2015, dated 2023).
# Tested on: hearts of aged (18-22 month old) WT mice
# Assay: Reversal of age-induced cardiac fibrosis and inflammation in aged WT mice (histology, immunofluorescence, western blot)
# Format: in vivo, mouse
# Procedure: There are 8 different sets of in vivo experiments in this study: • A) Phenotypic characterisation of the heart and blood vessels in global IRAP knockout mice and their WT controls treated for 4 weeks with Angiotensin (Ang) II (800 ng/kg/min; s.c.) where mouse hearts and blood vessels were compared to tissue obtained from young WT and IRAP^−/− mice treated with saline. • B) Prevention of Ang II-induced changes in the cardiovascular system following IRAP inhibitor treatment. In the prevention model, WT mice were treated with Ang II (800 ng/kg/min; s.c.)±the IRAP inhibitor (HFI-419; 500 ng/kg/min for 28 days) or HFI-vehicle (1 DMSO:3 HBC). • C) Phenotypic characterisation of the aged heart, kidney and blood vessels in the global IRAP knockout mice where aged WT and IRAP^−/− mouse hearts, kidneys and blood vessels were compared to tissue obtained from young WT and IRAP^−/− mice. • D) Reversal of the age-induced changes in the cardiovascular system following IRAP inhibitor treatment. In the reversal model, aged WT mice were treated with either saline, IRAP inhibitor (HFI-419 at 500 ng/kg/min; compound 1 at 500 ng/kg/min; compound 2 at 50 ng/kg/min) or HFI-vehicle (1 DMSO: 3 HBC) for 4 weeks. • E) Prevention of ischemic-reperfusion injury in isolated hearts taken from aged global IRAP knockout mice and aged IRAP inhibitor (HFI-419 at 500 ng/kg/min; s.c.) treated WT mice compared to age-matched vehicle-treated (1 DMSO:3 HBC; s.c.) WT controls. • F) Phenotypic characterization of cardiac function using echocardiography in the aged global IRAP knockout mice compared to aged and young WT mice. • G) Phenotypic characterization of liver steatosis in IRAP knockout mice in a high fat diet (HFD) model. • H) Reversal of the salt-induced fibrosis in the liver following IRAP inhibitor treatment.
# All mice which underwent surgery were anaesthetized with Isoflurane (Isorrane) (5% induction and 2.5% maintenance) and an incision made in the midscapular region through which osmotic minipumps (Alzet model 2004, Alza Corp) were inserted for subcutaneous drug administration. The incision area was sutured with 6/0 DY silk (Dynek Pty Ltd) and antibiotic powder applied (Cicatrin, Pfizer) followed by intramuscular injection of the analgesic Cartrophen (0.1 ml of a 1.5 mg/ml stock solution; Biopharm Australia). Systolic blood pressure (SBP) was measured fortnightly using non-invasive tail-cuff plethysmography apparatus (MC4000 Blood Pressure Analysis System, Hatteras Instrument Inc) before drug treatment (week 0), at week 2 of treatment and end of treatment (week 4). At the end of drug treatment, body weight of mice was recorded. Mice were anaesthetized using Isoflurane inhalation and killed by cervical dislocation. Organs (heart, aorta, kidneys, brain, blood and tibia) were collected, with heart and aorta being dissected appropriately as described below. All organs were then snap frozen in liquid nitrogen, and stored at −80° C. if they were not used for vascular reactivity studies conducted on the day mice were killed.
# To measure collagen deposition, frozen sections of heart, kidney or aorta (all 5 μm thickness) were air dried for 10 minutes and were brought through 3 times xylene (2 minutes each), and 3 times absolute alcohol washes before being rinsed in tap H2O for 30 seconds. Staining with an optimal concentration of picrosirius red (in this instance 0.05% picrosirius red diluted in saturated picric acid) was performed and left for an hour. Sections were then rinsed in water and differentiated in 0.01 M HCl for 2 minutes, followed by dehydration via 3 times absolute alcohol washes. Then, slides were brought through 3 times xylene washes before being cover slipped according to standard histological techniques using DPX as the mounting medium. […]
# [1] = aged WT mice, HFI-419 4 weeks, FIG. 13
# [2] = aged WT mice, HFI-419 4 weeks, FIG. 17
# [3] = aged WT mice, HFI-419 4 weeks, FIG. 18
compound,measurement,setting,value
CCOC(=O)C1=C(NC(C)=O)Oc2cc(O)ccc2C1c1cccnc1 (stereo not drawn) [HFI-419],ICAM-1 expression in heart,[1],reduced
same,MCP-1 expression in heart,[1],reduced
same,NFκB activation in heart (phospho-IκBα),[1],diminished
same,macrophage expression in heart,[1],reduced
same,superoxide production in heart (DHE),[1],diminished
same,MMP-2 protein level in heart,[2],no change
same,MMP-8 protein expression in heart,[2],trend towards increased
same,MMP-9 protein level in heart,[2],no change
same,MMP-13 protein level in heart,[2],no change
same,TIMP-1 protein levels in heart,[2],significantly decreased
same,precursor and mature forms of collagen α1 Type I in heart (western blot),[2],markedly reduced
same,TGF-β1 expression in heart,[3],downregulation
same,synthetic myofibroblasts (α-SMA) in heart,[3],downregulation
same,IRAP expression in heart,"~20 month old WT mice, HFI-419 500 ng/kg/min s.c., 4 weeks, FIG. 8c",significantly decreased
same,age-induced cardiac collagen deposition (picrosirius red),"~20 month old WT mice, HFI-419 500 ng/kg/min s.c., 4 weeks, FIGS. 15, 16",reversed age-induced collagen deposition to the same level seen in young adult mice
